Tested on: Delta strain of novel coronavirus
Type: in vivo, K18-hACE2 transgenic mice

N#C[C@@]1(c2ccc3c(N)ncnn23)O[C@H](COC(=O)C2CCCCC2)[C@@H](O)[C@H]1O [ATV014]
viral load in the lungs (antiviral effect) ([…], ATV014 100 mg/kg, Compound 1 150 mg/kg, once daily, intragastric, versus vehicle control): significant antiviral effects
anti-novel coronavirus effects in the mouse model (conclusion, ATV014 100 mg/kg, Compound 1 150 mg/kg): significant anti-novel coronavirus effects
reduction of viral load (mouse, in vivo): could reduce the viral load to varying degrees

Source: patent EP4623909A1, “PHARMACEUTICAL COMPOSITION FOR TREATING OR RELIEVING COVID-19 AND FORMULATION COMPRISING SAME” (priority 2022, dated 2024)
